Experimental findings from patent publication US11667631B2, “FGFR4 inhibitor, preparation method therefor, and applications thereof” (Jiangsu Hansoh Pharmaceutical Group Co., Ltd., priority 2016, dated 2023) are described below.

For orientation: IC50 means the midpoint of a concentration-inhibition curve. The MRT is a mean duration of stay, worked out from the concentration-time curve.

One data set addresses FGFR4 kinase (Homo sapiens (Human), UniProt P22455). Kind of data set: Enzymologic experiment of FGFR4 (TR-FRET). In kind it is biochemical. The conditions noted are these: FGFR4 kinase activity. As for the experimental part:
In this experiment, the inhibitory effect of the compounds on FGFR4 kinase activity was tested by a fluorescence resonance energy transfer (TR-FRET) method, and the half maximal inhibitory concentration (IC50) of the compounds on the FGFR4 kinase activity was determined.
2) 1˜5 μL of diluted solution in gradient of the compound was added.
3) 1˜5 μL of a substrate mixture containing substrate polypeptide with a final concentration of 5˜50 nM and ATP with a final concentration of 10˜200 μM was added.
4) The mixture was incubated for 0.5˜3 hours at room temperature.
5) 10 μL of EDTA and a test solution comprising labeled antibody were added, and the plate was incubated for 1 hour at room temperature.
7) The inhibition rates were calculated according to the fluorescence signal values.
For orientation: Time-resolved FRET reads energy transfer from a long-lived donor to a nearby acceptor.

The target in another data set is FGFR1 kinase (Homo sapiens (Human), UniProt P11362). Kind of data set: Enzymologic experiment of FGFR1 (TR-FRET). As to conditions: FGFR1 kinase activity. The data set is classed as biochemical. An outline of the steps:
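FGFR1 at 0.1˜5 nM final with substrate peptide 5˜50 nM and ATP 10˜200 μM final, 0.5˜3 h at room temperature. Stopped with EDTA plus labeled antibody for 1 h; TR-FRET signal read at 665 nm, IC50 fitted from inhibition rates.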

The next data set concerns Hep 3B cells. Kind of data set: Inhibition of Hep 3B cell proliferation (CellTiter-Glo). In kind it is cell-based. As to conditions: Homo sapiens, Hep3B; Hep 3B cell proliferation, 72 hours, CellTiter-Glo; read-out: Hep 3B IC50. In general terms: In ATP-based viability assays light output follows the ATP content of the culture.
For a further data set, the system named is HuH-7 cells. Kind of data set: Inhibition of HuH-7 cell proliferation (CellTiter-Glo). The data set is classed as cell-based. As to conditions: Homo sapiens; HuH-7 cell proliferation, 72 hours, CellTiter-Glo; read-out: HuH-7 IC50. An outline of the steps:
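HuH-7 cells plated and left 16–24 h, then exposed to serially diluted compound for 72 h at 37 °C, 5% CO2. Viability read by CellTiter-Glo luminescence. IC50 obtained by curve fitting of inhibition rates.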

The subject of a further data set is SK-HEP-1 cells. Kind of data set: Inhibition of SK-HEP-1 cell proliferation (CellTiter-Glo). The data set is classed as cell-based. As to conditions: Homo sapiens, SK-HEP1; SK-HEP-1 cell proliferation, 72 hours, CellTiter-Glo; read-out: SK-HEP-1 IC50. An outline of the steps:
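Cells seeded and allowed to attach 16–24 h, then exposed to serially diluted compound for 72 h at 37 °C, 5% CO2. Viability read by CellTiter-Glo luminescence; IC50 fitted from inhibition rates across concentrations.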

Data set [1] in a line: Pharmacokinetic (PK) analysis in rats. The data set is classed as in vivo, Sprague Dawley (SD) rats. The conditions noted are these: SD rats, single intragastric administration, 5 mg/kg; for Peak Time tmax: (sampling in hours); for AUC(0-t) / AUC(0-inf) / half-life / MRT / Cmax: Sprague-Dawley, rat, plasma, po; for AUC(0-t): read-out: Area Under Curve AUC0-t; for AUC(0-inf): read-out: Area Under Curve AUC0-∞; for half-life: read-out: Half-Time t1/2 (converted); for MRT: read-out: Mean Residence Time MRT; for Cmax: read-out: Plasma Concentration Cmax. An outline of the steps: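 Intravenous blood (0.2 ml) was collected into K2EDTA and centrifuged to obtain plasma. Plasma (40 μL) was protein-precipitated with 160 μL acetonitrile. Compound levels were measured by LC/MS/MS on a C18 column using 0.1% formic acid in water and acetonitrile at 0.8 mL/min.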

Sequence of FGFR4 kinase (P22455 22-802): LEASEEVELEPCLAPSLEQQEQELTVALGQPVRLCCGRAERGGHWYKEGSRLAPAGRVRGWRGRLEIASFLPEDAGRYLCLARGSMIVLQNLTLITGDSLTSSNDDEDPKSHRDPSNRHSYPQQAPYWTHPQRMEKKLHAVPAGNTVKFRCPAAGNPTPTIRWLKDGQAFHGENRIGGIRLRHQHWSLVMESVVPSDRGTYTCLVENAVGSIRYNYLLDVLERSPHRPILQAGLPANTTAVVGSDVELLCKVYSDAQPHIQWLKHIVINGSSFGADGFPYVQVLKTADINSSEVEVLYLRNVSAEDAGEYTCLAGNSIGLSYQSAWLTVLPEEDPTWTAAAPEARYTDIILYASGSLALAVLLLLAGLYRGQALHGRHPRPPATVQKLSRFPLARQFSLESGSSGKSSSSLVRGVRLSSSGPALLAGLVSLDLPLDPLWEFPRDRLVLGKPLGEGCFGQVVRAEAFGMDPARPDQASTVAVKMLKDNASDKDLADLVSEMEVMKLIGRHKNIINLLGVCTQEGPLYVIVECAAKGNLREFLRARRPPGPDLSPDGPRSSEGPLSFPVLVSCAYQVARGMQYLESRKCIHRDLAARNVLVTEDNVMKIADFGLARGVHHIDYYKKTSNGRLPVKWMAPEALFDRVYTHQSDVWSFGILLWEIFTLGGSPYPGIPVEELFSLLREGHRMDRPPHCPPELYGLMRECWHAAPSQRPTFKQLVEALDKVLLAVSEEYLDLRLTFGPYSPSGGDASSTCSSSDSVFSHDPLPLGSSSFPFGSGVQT
Sequence of FGFR1 kinase (P11362 22-822): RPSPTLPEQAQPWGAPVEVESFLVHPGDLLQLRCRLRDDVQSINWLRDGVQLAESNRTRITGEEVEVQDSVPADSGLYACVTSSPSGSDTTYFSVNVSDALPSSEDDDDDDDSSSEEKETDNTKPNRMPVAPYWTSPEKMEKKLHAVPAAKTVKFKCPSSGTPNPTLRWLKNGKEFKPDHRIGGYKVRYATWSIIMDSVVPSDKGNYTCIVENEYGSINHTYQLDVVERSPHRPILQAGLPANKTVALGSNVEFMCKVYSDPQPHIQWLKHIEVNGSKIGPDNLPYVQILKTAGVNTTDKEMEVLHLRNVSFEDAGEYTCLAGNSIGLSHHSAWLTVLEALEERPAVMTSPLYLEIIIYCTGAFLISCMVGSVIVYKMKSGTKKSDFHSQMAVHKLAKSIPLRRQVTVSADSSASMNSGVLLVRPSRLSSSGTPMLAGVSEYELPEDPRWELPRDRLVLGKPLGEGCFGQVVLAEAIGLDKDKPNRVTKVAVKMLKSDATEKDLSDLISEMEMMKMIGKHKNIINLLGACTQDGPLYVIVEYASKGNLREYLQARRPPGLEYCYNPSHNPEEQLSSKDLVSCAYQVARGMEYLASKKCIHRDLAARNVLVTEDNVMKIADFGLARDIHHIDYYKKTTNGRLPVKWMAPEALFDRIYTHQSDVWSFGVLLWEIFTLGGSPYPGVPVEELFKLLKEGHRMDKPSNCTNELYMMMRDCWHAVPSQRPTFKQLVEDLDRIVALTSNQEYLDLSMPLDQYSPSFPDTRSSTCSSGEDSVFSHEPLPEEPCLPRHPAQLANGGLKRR

For `CO[C@H]1COCC1Nc1cc(NC(=O)N2CCCc3cc(CN4CCOCC4=O)c(C=O)nc32)ncc1C#N` (stereo partly drawn) [Example 66, N-(5-Cyano-4-(((trans)-4-methoxytetrahydrofuran-3-yl)amino)pyridin-2-yl)-7-formyl-6-((3-carbonylmorpholino)methyl)-3,4-dihydro-1,8-naphthyridin-1(2H)-carboxamide], at FGFR4 kinase, the IC50 was found to be 0.97 nM. On FGFR1 kinase, this compound gave an IC50 greater than 10000 nM. The IC50 in the data set on Hep 3B cells is 3.3 nM. Moreover, the IC50 with HuH-7 cells came out at 11.7 nM. In addition, the IC50 with SK-HEP-1 cells is greater than 10000 nM. For the same compound, in data set [1], the Peak Time tmax is 4 h, the AUC(0-t) is 2480 ng·h/mL, the AUC(0-inf) is 2540 ng·h/mL and the half-life is 1 h. In data set [1], the MRT came to 3.6 h and the Cmax came to 1880 ng/mL.

With `COCCNc1cc(NC(=O)N2CCCc3cc(CN4C(=O)OCC45CC5)c(C=O)nc32)ncc1C#N` [Example 43, N-(5-Cyano-4-((2-methoxyethyl)amino)pyridin-2-yl)-7-formyl-6-((5-carbonyl-6-oxa-4-azaspiro[2.4]heptan-4-yl)methyl)-3,4-dihydro-1,8-naphthyridin-1(2H)-carboxamide], the 50% inhibitory concentration (IC50) was 4.41 nM against FGFR4 kinase; greater than 10000 nM at FGFR1 kinase; 8.1 nM in the data set on Hep 3B cells; 8.1 nM with HuH-7 cells; greater than 10000 nM with SK-HEP-1 cells.

For the compound `COC[C@H](C)Nc1cc(NC(=O)N2CCCc3cc(CN4CCCCOC4=O)c(C=O)nc32)ncc1C#N` [Example 30], the IC50 was 2.5 nM against FGFR4 kinase; greater than 10000 nM on FGFR1 kinase; 4.6 nM with Hep 3B cells; 13.4 nM in the data set with HuH-7 cells; greater than 10000 nM with SK-HEP-1 cells.

For `N#Cc1cnc(NC(=O)N2CCCc3cc(CN4CCCCOC4=O)c(C=O)nc32)cc1S[C@H]1CCOC1` [Example 36], the IC50 at FGFR4 kinase is 4.25 nM; on FGFR1 kinase, greater than 10000 nM; in the data set on Hep 3B cells, 8 nM; in the data set with HuH-7 cells it was 20.4 nM; in the data set on SK-HEP-1 cells, greater than 10000 nM.

On to `CO[C@H]1COCC1Nc1cc(NC(=O)N2CCCc3cc(CN4C(=O)OCC4C)c(C=O)nc32)ncc1C#N` (stereo partly drawn) [Example 46, N-(5-Cyano-4-trans-(((3,4)-4-methoxytetrahydrofuran-3-yl)amino)pyridin-2-yl) -7-formyl-6-(((S)-4-methyl-2-carbonyloxazolidin-3-yl)methyl)-3,4-dihydro-1,8-naphthyridin-1(2H)-carboxamide], for which the IC50 at FGFR4 kinase was 2.93 nM. The compound also displayed an IC50 against FGFR1 kinase greater than 10000 nM. Also, the IC50 in the data set on Hep 3B cells came out at 12.7 nM. In addition, in the data set on HuH-7 cells, the IC50 amounted to 44.4 nM. Besides, in the data set with SK-HEP-1 cells, the IC50 was greater than 10000 nM. In addition, in data set [1], the Peak Time tmax was 4 h, the AUC(0-t) was 1530 ng·h/mL, the AUC(0-inf) stood at 1530 ng·h/mL and the half-life is 2.55 h. For the same compound, in data set [1], the MRT stood at 6.24 h and the Cmax worked out at 1930 ng/mL.

As for `CONc1cc(NC(=O)N2CCCc3cc(CN4CCOCC4=O)c(C=O)nc32)ncc1C#N` [Example 54, N-(5-Cyano-4-(methoxyamino)pyridin-2-yl)-7-formyl-6-((3-carbonylmorpholino)methyl)-3,4-dihydro-1,8-naphthyridine-1(2H)-carboxamide], the IC50 against FGFR4 kinase stood at 2.77 nM. The IC50 against FGFR1 kinase was greater than 10000 nM. The IC50 with Hep 3B cells was determined as 17.5 nM. The IC50 in the data set on HuH-7 cells turned out to be 24.1 nM. For the same compound, the IC50 in the data set with SK-HEP-1 cells is greater than 10000 nM. Further, in data set [1], the Peak Time tmax amounted to 4 h, the AUC(0-t) amounted to 5530 ng·h/mL, the AUC(0-inf) worked out at 5690 ng·h/mL and the half-life is 0.98 h. In data set [1], the MRT was 3.86 h and the Cmax is 1290 ng/mL.

In the case of `COCCNc1cc(NC(=O)N2CCCc3cc(CN4CCCN(C)CC4=O)c(C=O)nc32)ncc1C#N` [Example 7, N-(5-Cyano-4-((2-methoxyethyl)amino)pyridin-2-yl)-7-formyl-6-((4-methyl-2-carbonyl-1,4-diazoheptyl-1-yl)methyl)-3,4-dihydro-1,8-naphthyridin-1(2H)-carboxamide], the half-maximal inhibitory concentration (IC50) is 0.6 nM at FGFR4 kinase; greater than 10000 nM on FGFR1 kinase; 1.4 nM in the data set with Hep 3B cells; 10.2 nM in the data set on HuH-7 cells; greater than 10000 nM with SK-HEP-1 cells.

Turning to `C[C@H]1COC(=O)N1Cc1cc2c(nc1C=O)N(C(=O)Nc1cc(S[C@H]3CCOC3)c(C#N)cn1)CCC2` [Example 45, N-(5-Cyano-4-(((S)-tetrahydrofuran-3-yl)thio)pyridin-2-yl)-7-formyl-6-(((S)-4-methyl-2-carbonyloxazolidin-3-yl)methyl)-3,4-dihydro-1,8-naphthyridin-1(2H)-carboxamide], the IC50 on FGFR4 kinase was 4.66 nM; against FGFR1 kinase, greater than 10000 nM; in the data set on Hep 3B cells, 14.2 nM; with HuH-7 cells it was 32.2 nM; in the data set on SK-HEP-1 cells it was greater than 10000 nM.

As to `COC[C@@H](C)Oc1cc(NC(=O)N2CCCc3cc(CN4CCOC4=S)c(C=O)nc32)ncc1C#N` [Example 48, (R)-N-(5-Cyano-4-((1-methoxypropan-2-yl)oxy)pyridin-2-yl)-7-formyl-6-((2-thiooxazolidin-3-yl)methyl)-3,4-dihydro-1,8-naphthyridin-1(2H)-carboxamide], the IC50 against FGFR4 kinase was 8.48 nM; against FGFR1 kinase, greater than 10000 nM; in the data set on Hep 3B cells, 13.1 nM; in the data set on HuH-7 cells, 15.6 nM; in the data set on SK-HEP-1 cells it was greater than 10000 nM.

Consider `CC1COC(=O)N1Cc1cc2c(nc1C=O)N(C(=O)Nc1cc(S[C@@H]3CCOC3)c(C#N)cn1)CCC2` (stereo partly drawn) [Example 44, N-(5-Cyano-4-(((R)-tetrahydrofuran-3-yl)thio)pyridin-2-yl)-7-formyl-6-(((S)-4-methyl-2-carbonyloxazolidin-3-yl)methyl)-3,4-dihydro-1,8-naphthyridin-1(2H)-carboxamide], for which the IC50 at FGFR4 kinase is 6.5 nM; at FGFR1 kinase, greater than 10000 nM; in the data set on Hep 3B cells it was 11.5 nM; in the data set on HuH-7 cells, 35.4 nM; in the data set with SK-HEP-1 cells, greater than 10000 nM.

For the compound `COCCNc1cc(NC(=O)N2CCCc3cc(CN4C(=O)COCC45CC5)c(C=O)nc32)ncc1C#N` [Example 21, N-(5-Cyano-4-((2-methoxyethyl)amino)pyridin-2-yl)-7-formyl-6-((5-carbonyl-7-oxa-4-azaspiro[2.5]octane-4-yl)methyl)-3,4-dihydro-1,8-naphthyridin-1(2H)-carboxamide], the IC50 at FGFR4 kinase was 1.71 nM; at FGFR1 kinase, greater than 10000 nM; with Hep 3B cells, 8.6 nM; in the data set on HuH-7 cells, 13.4 nM; in the data set with SK-HEP-1 cells, greater than 10000 nM.

Consider `CO[C@@H]1COCC1Nc1cc(NC(=O)N2CCCc3cc(CN4CCCCOC4=O)c(C=O)nc32)ncc1C#N` (stereo partly drawn) [Example 37, N-(5-Cyano-4-(((trans)-4-methoxytetrahydrofuran-3-yl)amino)pyridin-2-yl)-7-formyl-6-((2-carbonyl-1,3-oxazepin-3-yl)methyl)-3,4-dihydro-1,8-naphthyridin-1(2H) -carboxamide], for which the IC50 against FGFR4 kinase is 1.12 nM; against FGFR1 kinase it was greater than 10000 nM; in the data set with Hep 3B cells, 2.8 nM; with HuH-7 cells it was 4.1 nM; in the data set on SK-HEP-1 cells, greater than 10000 nM.

Consider `CC1OCCC1Sc1cc(NC(=O)N2CCCc3cc(CN4CCOCC4=O)c(C=O)nc32)ncc1C#N` (centres unmarked) [Example 3, N-(5-Cyano-4-((2-methyltetrahydrofuran-3-yl)thio)pyridin-2-yl)-7-formyl-6-((3-carbonylmorpholino)methyl)-3,4-dihydro-1,8-naphthyridin-1(2H)-carboxamide], for which the IC50 on FGFR4 kinase is 5.4 nM; against FGFR1 kinase it was greater than 10000 nM; in the data set with Hep 3B cells, 13.1 nM; with HuH-7 cells, 40.9 nM; in the data set on SK-HEP-1 cells it was greater than 10000 nM.
